Source: article PMC3551756, “HIV-1 Fusion Is Blocked through Binding of GB Virus C E2D Peptides to the HIV-1 gp41 Disulfide Loop” (PLoS ONE, 2013)

What was measured:
[1] = biological target: E2_340-Fc / HIV-1 gp41MN interaction (Human immunodeficiency virus type 1 group M subtype B, UniProt P05877); format: binding; details: ELISA, immobilized gp41MN, E2_340-Fc constant (5 µg/ml), increasing peptide; three independent experiments each in duplicate
Procedure: Flat-bottom, 96-well Microtest ELISA plates (Sarstedt, Germany) were coated overnight at 4°C with recombinant HIV-1 gp120 (0.5 µg/ml), gp41 (0.22 µg/ml) proteins, or with streptavidin (4 µg/ml) in coating buffer (0.1 M NaHCO3, 0.1 M Na2CO3, pH 9.87). Nonspecific binding was blocked (blocking buffer: 1% BSA, 0.1% Tween-20 in phosphate buffer, pH 7.2) for 1 h at room temperature, followed by washing steps (wash buffer: 0.1% Tween in phosphate buffer, pH 7.2). […] All plates were then incubated with recombinant E2_340-Fc or Fc protein in serial dilutions in sample buffer (phosphate buffer, pH 7.2) for 3 hr at room temperature. To perform the competitive ELISAs, the recombinant E2_340-Fc protein was adjusted at 5 µg/ml and the monoclonal gp41 antibodies (246-D, F240, T32, D50, 2F5, 4E10, Chessie 8 [all: NIH AIDS Research and Reference Reagent Program], and 5F3 [Polymun, Austria]) at 100 µM. After washing procedure, the plates were incubated for 1 h with polyclonal rabbit anti-human IgG peroxidase antibody (Dako, Germany) 1∶6000 in sample buffer and washed. Plates were developed with TMB peroxidase substrate solution (KPL, USA), or with OPD/H2O2 solution in the dark. Absorbances (ODs) were read at 450 or 492 nm, respectively, using a multi-channel photometer (ELISA-Reader AxSYM, Abbott Laboratory, USA).
Competitive binding of E2 and gp120 peptides (N35, N35s) with recombinant E2_340-Fc protein to immobilized recombinant gp41MN. Simultaneously to E2_340-Fc incubation peptides of E2 or gp120 were added with increasing amounts.

CCR5 = CCR5 surface expression, flow cytometry; format: cell-based, human; details: PBMC and TZM-bl cells; E2 peptides 25 µM, RANTES 50 nM; 6 hr; FACS; RTCN vs mock; average of two independent experiments each in triplicate
Procedure: PHA/IL-2-stimulated PBMC or TZM-bl cells were incubated with E2 peptides (25 µM), phorbol 12-myristate 13-acetate (PMA; 40 ng/ml), SDF-1α (1 µg/ml) or RANTES (50 nM) for 6 hr. CD4, CXCR4 and CCR5 surface expression was analyzed by using standard FACS staining protocols. Cells were washed with PBS and incubated for 30 min at 4°C with PE-labeled antibodies (CD4 clone SK3, CXCR4 clone 12G5, and CCR5 clone 2D7, BD Biosciences, Germany). Subsequently, washed cells were resuspended in PBS and analyzed with a FACSCalibur™ flow cytometer (BD Biosciences, Germany).
The non-HIV-1-inhibitory peptide P28 derived from the C-terminal part of E2 (residue 271 to 290), served as a negative control.
CD4, CXCR4 and CCR5 expression on PBMC (A) and TZM-bl cells (B) after preincubation with E2 peptides were determined by flow cytometry analysis. […] Percentages illustrate the ratio-to-cell-negative (RTCN) values that were calculated from the percentage of positive cells and the fluorescence intensity of peptide-incubated cells compared to mock-incubated cells. Columns show average values ±SD of two independent experiments each performed in triplicate. *: p<0.05; **: p<0.01 (mock- vs. inhibitor-incubated cells).

[2] = system: HIV-1 Env (NL4-3 gp160, X4env) on 293T cells; assay: HIV-1 gp160 (X4env) binding of FITC-labeled E2 peptides, flow cytometry; details: FITC-labeled peptides 1 µM; for binding to HIV-1 Env-expressing cells: sCD4 pretreated, 1 h 37°C, X4env- vs vector-transfected 293T cells, three independent experiments each in duplicate; for background attachment to mock- or vector-transfected cells: mock- or vector-transfected 293T cells
Procedure: 293T cells were transiently transfected with an HIV-1 Env expression vector, coding for the CXCR4-tropic NL4-3 gp160 precursor (X4env) for surface expression of gp120-gp41 Env trimers or empty plasmid as control. After 2 days of cultivation, cells were incubated with 1 µg sCD4 and 1 µM FITC-conjugated E2 peptides for 1 h at 37°C respectively. Subsequently, cells were washed, resuspended in PBS, and analyzed by flow cytometry using a BD™ LSR II flow cytometer (Becton Dickinson Biosciences, Germany). Flow cytometer data were collected with BD FACSDiva™ and analyzed with FCS Express V3. In parallel, gp160 expression was determined by staining with HIV-1 gp120 mAbs (2G12 and 17b) and an anti-human IgG-FITC pAb (Dako, Germany).
Previously, we have shown that the target of the HIV-1-inhibitory E2 peptides is most likely located on the HIV-1 particle, rather than on the cell. The surface of the HIV-1 particle consists of a lipid bilayer with incorporated host cell proteins and a limited number of functional envelope (Env) trimers (on average 14±7). Therefore, we tested whether the HIV-1-inhibitory E2 peptides interact with trimeric HIV-1 Env proteins expressed on the surface of transfected cells. For this purpose, 293T cells were transiently transfected with an HIV-1 Env expression vector, coding for the gp160 precursor of the CXCR4-tropic NL4-3 envelope (X4env). Binding of FITC-labeled E2 peptides was monitored by flow cytometry.
Figure 4 Recombinant E2_340-Fc protein and E2-derived peptides bind HIV-1 gp41. (A) 293T cells expressing NL4-3 envelope (X4env) or empty plasmid as control were incubated with sCD4 and FITC-conjugated E2 peptides, respectively. Peptide binding was analyzed by flow cytometry. Percentages illustrate the increase of cell binding to X4env-transfected cells. The increase is normalized to the background binding of E2 peptides to mock-transfected cells by calculating the RTCN value. […] (C) E2 peptides with increasing amounts were added to recombinant E2_340-Fc protein (at constant concentration) and then transferred to immobilized recombinant gp41MN.

T32 = assay: Unspecific binding of E2 peptides to antibody T32; details: data not shown
F240 = assay: Unspecific binding of E2 peptides to antibody F240; details: data not shown

Chain of E2_340-Fc / HIV-1 gp41MN interaction (P05877 514-856): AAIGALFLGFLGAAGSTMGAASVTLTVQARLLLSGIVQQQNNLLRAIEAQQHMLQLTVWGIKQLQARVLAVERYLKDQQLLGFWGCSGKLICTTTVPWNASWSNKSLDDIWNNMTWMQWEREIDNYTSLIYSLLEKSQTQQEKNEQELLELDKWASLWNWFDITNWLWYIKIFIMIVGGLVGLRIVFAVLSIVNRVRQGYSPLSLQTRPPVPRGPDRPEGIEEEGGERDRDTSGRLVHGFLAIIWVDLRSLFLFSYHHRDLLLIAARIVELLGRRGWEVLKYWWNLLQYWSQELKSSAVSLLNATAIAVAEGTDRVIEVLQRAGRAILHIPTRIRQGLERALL

## CC(=O)N[C@@H](CC(C)C)C(=O)N[C@@H](CS)C(=O)N[C@@H](CC(=O)O)C(=O)N[C@@H](CS)C(=O)N1CCC[C@H]1C(=O)N[C@@H](CC(N)=O)C(=O)NCC(=O)N1CCC[C@H]1C(=O)N[C@@H](Cc1c[nH]c2ccccc12)C(=O)N[C@H](C(=O)N[C@@H](Cc1c[nH]c2ccccc12)C(=O)N[C@H](C(=O)N1CCC[C@H]1C(=O)N[C@@H](C)C(=O)N[C@@H](Cc1ccccc1)C(=O)N[C@@H](CS)C(=O)N[C@@H](CCC(N)=O)C(=O)N[C@@H](C)C(=O)N[C@H](C(=O)NCC(=O)O)C(C)C)C(C)C)C(C)C [P6-2]
[1]
  competition with E2_340-Fc for gp41 binding: abrogated the protein-protein interaction between HIV-1 gp41 and GBV-C E2 in a dose-dependent manner
CCR5
  CCR5 surface presentation: no relevant effect on HIV-1 receptor presentation
[2]
  binding to HIV-1 Env-expressing cells: significant increase in the binding
  background attachment to mock- or vector-transfected cells: background attachment
T32
  unspecific binding to antibody T32: No unspecific binding
F240
  unspecific binding to antibody F240: No unspecific binding

## Ac-WDRGNVTLLCDCPNGPWVWV [P4-7, 20 mer peptide presenting amino acids 37 to 56 of the GBV-C E2 protein]
[1]
  competition with E2_340-Fc for gp41 binding: abrogated the protein-protein interaction between HIV-1 gp41 and GBV-C E2 in a dose-dependent manner
CCR5
  CCR5 surface presentation: no relevant effect on HIV-1 receptor presentation
[2]
  binding to HIV-1 Env-expressing cells: significant increase in the binding
  background attachment to mock- or vector-transfected cells: background attachment
T32
  unspecific binding to antibody T32: No unspecific binding
F240
  unspecific binding to antibody F240: No unspecific binding
